How the values were obtained:
Aspergillus flavus = assay: Antimicrobial activity against Aspergillus flavus at 100 U/disk after 72 to 96 hr by disk diffusion method; format: functional
Nannizzia gypsea = assay: Antimicrobial activity against Microsporum gypseum at 100 U/disk after 72 to 96 hr by disk diffusion method; format: functional
Mucor = assay: Antimicrobial activity against Mucor at 100 U/disk after 72 to 96 hr by disk diffusion method; format: functional
Rhizopus = assay: Antimicrobial activity against Rhizopus at 100 U/disk after 72 to 96 hr by disk diffusion method; format: functional
Vibrio cholerae = assay: Antimicrobial activity against Vibrio cholerae at 5 ug/disc after 24 hr by disk diffusion method; format: functional; conditions: read-out: IZ
Streptococcus = assay: Antimicrobial activity against beta-hemolytic Streptococcus at 5 ug/disk after 24 hr by disk diffusion method; format: functional; conditions: read-out: IZ
Shigella flexneri = assay: Antimicrobial activity against Shigella flexneri at 5 ug/disc after 24 hr by disk diffusion method; format: functional; conditions: read-out: IZ
Pseudomonas = assay: Antimicrobial activity against Pseudomonas at 5 ug/disk after 24 hr by disk diffusion method; format: functional; conditions: read-out: IZ
Salmonella typhi = assay: Antimicrobial activity against Salmonella enterica subsp. enterica serovar Typhi at 5 ug/disk after 24 hr by disk diffusion method; format: functional; conditions: read-out: IZ
Staphylococcus aureus = assay: Antimicrobial activity against Staphylococcus aureus at 5 ug/disc after 24 hr by disk diffusion method; conditions: read-out: IZ
Klebsiella pneumoniae = assay: Antimicrobial activity against Klebsiella pneumoniae at 5 ug/disk after 24 hr by disk diffusion method; conditions: read-out: IZ

Row | SMILES | inhibition zone (IZ) (Aspergillus flavus) | inhibition zone (IZ) (Nannizzia gypsea) | inhibition zone (IZ) (Mucor) | inhibition zone (IZ) (Rhizopus) | zone of inhibition at 5 µg/disc (Vibrio cholerae) | zone of inhibition at 5 µg/disc (Streptococcus) | zone of inhibition at 5 µg/disc (Shigella flexneri) | zone of inhibition at 5 µg/disc (Pseudomonas) | zone of inhibition at 5 µg/disc (Salmonella typhi) | zone of inhibition at 5 µg/disc (Staphylococcus aureus) | zone of inhibition at 5 µg/disc (Klebsiella pneumoniae)
1 | OC(Cn1cncn1)(Cn1cncn1)c1ccc(F)cc1F [FLUCONAZOLE] | 20 mm | 20 mm | 20 mm | 20 mm |  |  |  |  |  |  | 
2 | O=C(O)c1cn(C2CC2)c2cc(N3CCNCC3)c(F)cc2c1=O [CIPROFLOXACIN] |  |  |  |  | 23 mm | 28 mm | 23 mm | 23 mm | 22 mm | 25 mm | 26 mm

— ChEMBL document CHEMBL3045021, “Synthesis, antibacterial, and antifungal activities of biolabile (E)-1-(4-morpholinophenyl)-3-aryl-prop-2-en-1-ones” (2009)
